This passage reports IC50 results from ChEMBL document CHEMBL3217677, “Synthesis, biological evaluation and X-ray crystallographic studies of imidazo[1,2-a]pyridine-based Mycobacterium tuberculosis glutamine synthetase inhibitors” (Medchemcomm, 2012).

The experiment in a line: Inhibition of Mycobacterium tuberculosis glutamine synthetase expressed in Escherichia coli GJ4745 after 1 hr by colorimetry.

For orientation: IC50 means the midpoint of a concentration-inhibition curve. The low end stands for greater potency in that assay, the high end for weaker potency in that assay. For `Cn1c(N2CCOCC2)nc2c1c(=O)n(Cc1ccc(Cl)c(Cl)c1)c(=O)n2C`, the IC50 was 2.5 µM. The compound `CC(C)Nc1c(-c2ccc(F)c(F)c2F)nc2ccc(Br)cn12` displayed an IC50 greater than 25 µM.

In turn, `Oc1ccc(-c2nc3ccc(Br)cn3c2NC2CCCCC2)c(Cl)c1` came in with an IC50 greater than 25 µM.

For `CS(=O)(=O)c1cc(Cl)ccc1-c1nc2ccc(Br)cn2c1NC1CCCC1`, the IC50 was greater than 25 µM.

Turning to `COc1ccc(Nc2c(-c3ccc(OCc4ccccc4)c(OCc4ccccc4)c3)nc3ccc(Br)cn23)cc1`, the IC50 was greater than 25 µM. With `Fc1cc(-c2nc3ccc(Br)cn3c2NC2CCCC2)ccc1N1CCOCC1` the figure was greater than 25 µM; with `CCCCNc1c(-c2ccc(OCCO)cc2)nc2ccc(Br)cn12`, 3 µM; with `CN(C)c1ccc(-c2nc3ccc(Br)cn3c2NC2CCCC2)cc1`, greater than 25 µM. With `COc1cccc(-c2nc3ccc(Br)cn3c2NCCN2CCOCC2)c1OC`, the IC50 is greater than 25 µM. Then `COc1cccc(-c2nc3ccc(Br)cn3c2NC2CCCC2)c1OCc1ccccc1`, with greater than 25 µM. Then `CC(C)(C)Nc1c(-c2ccccc2O)nc2ccc(Br)cn12`, with greater than 25 µM; and `Brc1ccc2nc(-c3ccccc3-c3ccccc3)c(NC3CCCC3)n2c1`, with greater than 25 µM. Consider `CC(C)Nc1c(-c2cccc(N3CCOCC3)c2)nc2ccc(Br)cn12`, for which the IC50 is greater than 25 µM.

With `Brc1ccc2nc(-c3ccccc3)c(NCCc3ccccc3)n2c1`, the IC50 was greater than 25 µM. With `CC(C)Nc1c(-c2ccc(OCCO)cc2)nc2ccc(Br)cn12` the figure was greater than 25 µM. With `OCCOc1ccc(-c2nc3ccc(Br)cn3c2Nc2ccc(F)cc2)cc1` the figure was greater than 25 µM. With `OCCOc1ccc(-c2nc3ccc(Br)cn3c2NC2CCCC2)cc1` the figure was greater than 25 µM; with `CCCNc1c(-c2ccc(OCCO)cc2)nc2ccc(Br)cn12`, 3.9 µM. As to `CCCCCNc1c(-c2ccc(OCCO)cc2)nc2ccc(Br)cn12`, the IC50 stood at 4.9 µM. Take `CCCCNc1c(-c2ccc(N(C)CCO)cc2)nc2ccc(Br)cn12`: the IC50 was determined as 8.3 µM.

As for `CCCCNc1c(-c2ccc(OCC(=O)O)cc2)nc2ccc(Br)cn12`, the IC50 was found to be 1.6 µM. With `CCCCNc1c(-c2ccc(N(CCO)CCO)cc2)nc2ccc(Br)cn12` the figure was 22 µM; with `CCCCNc1c(-c2ccc(OCCC)cc2)nc2ccc(Br)cn12`, 15 µM; with `CCCCNc1c(-c2ccc(OCC(N)=O)cc2)nc2ccc(Br)cn12`, 6.3 µM.

For `CCCCNc1c(-c2ccc(OCCN(C)C)cc2)nc2ccc(Br)cn12`, the IC50 was found to be 5.8 µM. With `CCCCNc1c(-c2ccc(OCC#N)cc2)nc2ccc(Br)cn12` the figure was 10 µM; with `CCCCNc1c(-c2cccc(OCCO)c2)nc2ccc(Br)cn12`, 2.2 µM; with `CCCCNc1c(-c2ccc(OC)c(O)c2)nc2ccc(Br)cn12`, 1.9 µM.

Consider `CCCCNc1c(-c2cccc(O)c2)nc2ccc(Br)cn12`, for which half-maximal inhibition (IC50) was put at 1.4 µM. Then `CCCCNc1c(-c2cccc(C(=O)O)c2)nc2ccc(Br)cn12`, with 0.6 µM; and `CCCCNc1c(-c2ccc(O)c(OC)c2)nc2ccc(Br)cn12`, with 1.5 µM.
